According to patent US5556840A, “2',5'-phosphorothioate oligoadenylates as anitiviral agents” (Temple University - Of The Commonwealth System of Higher …, priority 1994, dated 1996):
“Also recorded” adds a separate entry of the source. Read-outs that look alike come from different tables or passages of the source.

How the values were obtained:
RNase L [1] = assay: rRNA cleavage assay using L929 cell extracts (28S and 18S rRNA); format: biochemical, mouse; settings: for concentration at which RNase L was activated to cleave 28S and 18S rRNA: L929 cell extracts, '>' = no activation at that concentration
Experimental: Activation of RNase L by 2',5'-phosphorothioate adenylate trimer cores and their 5'-monophosphates was also measured in an rRNA cleavage assay using L929 cell extracts.
The corresponding 5'-monophosphates pARp ARp A, pASp ARp A (at 10^-8 M) and pARp ASp A (at 10^-7 M) activated RNase L to cleave 28S and 18S rRNA.

[2] = tested on: HIV reverse transcriptase; assay: HIV reverse transcriptase activity; format: biochemical, HIV (HTLV-IIIB); settings: for Percent Inhibition of HIV reverse transcriptase / Reverse Transcriptase Activity: 200 uM; for Reverse Transcriptase Activity: control 187×10^3 cpm (reactions 1-4), 273×10^3 cpm (reactions 5-13)
Experimental: HIV reverse transcriptase (RNA-dependent DNA nucleotidyl-transferase) activity was assayed by a modification of the procedure of Poiesz et al. (Poiesz, B. J., Ruscetti , F. W., Gazdar, A. F., Bunn, P. S., Minna, J. D., and Gallo, R. C., Proc. Natl. Acad. Sci. U.S.A. 77: 7415-7419 (1980)).
Cultured H-9 cells are grown at 10^6 cells/ml in RPMI-1640 medium and 20% heat-inactivated fetal calf serum. Cell suspensions are centrifuged (1000×g, 10 min.) and the supernatant is removed. Virus particles are precipitated from this cell-free supernatant to which 0.3 ml of 4M NaCl and 3.6 ml of 30% (weight/volume) polyethylene glycol are added. The suspension is placed on ice for 2 hr following centrifugation at 15,000×g for 30 min at 0° C. The precipitate is resuspended in 200 microliters of 50% glycerol (vol./vol.)/25 mM Tris-HCl (pH 7.5)/5 mM dithiothreitol/50 mM KCl/0.025% Triton X-100. Virus particles are lysed by the addition of 100 microliters of 0.9% Triton X-100/1.5M KCl. Reverse transcriptase assays are performed at 37° C. for 1 hr with 10 microliters of the lysed virus solution in a final reaction volume of 100 microliters containing: 40 mM Tris-HCl (pH 7.8), 4 mM dithiothreitol, 45 mM KCl and 2.5 micrograms of template primer [poly(A)-dT15, 0.5 micrograms/microliter] (with a signal Mg^++ concentration of 10 mM). At this time, 10 microliters of the 2',5'-phosphorothioate oligoadenylate is added to a final concentration of 200 micromolar. Reaction mixtures also contain 4 micromoles of [^3 H]dTTP. Reactions are stopped by the addition of cold 5% trichloroacetic acid and filtered through nitrocellulose discs. The discs are dried and the radioactivity bound to the discs is determined. Reverse transcriptase activity is expressed as the percent relative to a control.
The compounds were assayed in the above manner in two sets, each set having a separate set of controls. The compounds of reactions 1-4 were assayed against control #1, which was 187×10^3 cpm. The compounds used in reactions 5-13 were assayed against control #2, which was 273×10^3 cpm.

[3] = tested on: tobacco mosaic virus (TMV); assay: TMV replication in intact Nicotiana glutinosa plants (local lesions); format: in vivo; settings: for Percent TMV Inhibition: 2 × 10^-5 M in infecting solution, 48 hr after infection, half-leaves of N. glutinosa
Experimental: Carborundum (400 mesh) was sprinkled lightly onto leaves. Solutions containing 0.2 micrograms per ml of TMV and 2×10^-5 M 2',5'-phosphorothioate oligoadenylate in phosphate buffer were applied onto half-leaves of N. glutinosa with either a gloved finger or with a pipettor. The remaining half-leaves were controls (inoculated with the buffer solution containing TMV, but no active compound). The infection was allowed to proceed 48 h under continuous illumination of about 1500 Lx at which time local virus lesions appeared. Inhibition of TMV replication was calculated as the percent of local lesions produced in 2',5'-phosphorothioate oligoadenylate-treated half-leaves compared to control half-leaves.
^4 Inhibition of TMV replication was detected 48 hr after infection
and was calculated as the percent of local lesions produced in treated
halfleaves of N. glutinosa compared to control halfleaves.

RNase L [4] = assay: Activation or inhibition of RNase L, general statements without assay named; format: biochemical
phosphodiesterases = assay: Metabolic stability, general statements; format: in vitro ADME
SVPD = assay: Hydrolysis by SVPD (snake venom phosphodiesterase); format: in vitro ADME
Experimental: It is known that the enzyme SVPD preferentially cleaves Rp-3',5'- or 2',5'-phosphorothioate linkages from the 2'/3'-terminus. Nelson et al, J. Org. Chem. 49:2314-2317 (1984); Eppstein et al, J. Biol. Chem. 261:5999-6003 (1986); Lee et al, Biochemistry 24:551-555 (1985). SVPD hydrolysis of the chemically synthesized dimer core ARp A yielded adenosine and AMPS in a molar ratio of 1:1, respectively; the half-life was 3 hours (Table 3).
(§1) The metabolic stability of the 2,5'-phosphorothioate dimer and trimer cores is markedly greater than authentic 2-5A. The rate of hydrolysis of the trimer cores by the 3'-exonuclease SVPD is, in order of decreasing stability: ASp ARp A>ARp ARp A>>>A3. […] The 3'->'5'direction of stepwise cleavage by SVPD is blocked by an Sp configuration, preventing cleavage of the upstream adjacent phosphorothioate linkage. […] With both SVPD and 2'-PDE, the dimer cores (either ARp A or ASp A) accumulate following hydrolysis of the ARp ARp A, ASp ARp A and ARp ASp A trimer cores. Hydrolysis of the 2-5A molecule by SVPD and 2'-PDE proceeds from the 2'/3'-terminus. Therefore, introduction of the phosphorothioate group into the trimer core results in the accumulation of the ARp A or ASp A dimer cores from the 5'-terminus and the accumulation of AMPS from the 2'/3'-terminus (Table 3). With authentic A3, there is no detectable accumulation of A2 following hydrolysis by SVPD or 2'-PDE.

[5] = tested on: 2'-phosphodiesterase (2'-PDE), L cell extract; assay: Hydrolysis by 2'-phosphodiesterase in L cell extract; format: in vitro ADME
Excerpt: The four 2,5-phosphorothioate adenylate trimer cores were further characterized by hydrolysis with the enzyme 2'-phosphodiesterase ("2'-PDE"), an exoribonuclease found in L cell extract The enzyme cleaves from the 2'/3'-terminus.
as §1

serum phosphodiesterases = assay: Hydrolysis by serum phosphodiesterases
RNase L [6] = assay: Core-cellulose assay: activation of partially-purified RNase L to hydrolyze poly(U)-3'-[32P]pCp; format: biochemical, mouse
Experimental: FIG. 1B represents the results of a core-cellulose assay indicating the ability of the 2',5'-phosphorothioate adenylate trimer cores and 5'-monophosphates to activate partially-purified RNase L from L929 cell extracts to hydrolyze the substrate polY(U)-3'-[^32 P]pCp. Activation of RNase L was determined by conversion of poly (U )-3'-[^32 P]pCp to acid-soluble fragments. 100% represents 30,000 cpm of labelled poly(U)-3'-[^32 P]pCp bound to glass fiber filters. The curves are labelled in the same manner as FIG. 1A.
The 2',5'-phosphorothioate cores, with one exception, have the correct stereoconfiguration to activate RNase L. The activation of partially-purified RNase L by the 2',5'-phosphorothioates was measured according to the core-cellulose assay of Silverman, Analyt. Biochem. 144:450-460 (1985) which relies on hydrolysis of the substrate poly(U)-3-[^32 P]pCp. […] (FIG. 1B) The order of activation of the trimer cores and the corresponding 5'-monophosphates is: RpRp>SpRp>RpSp (FIG. 1B).

5'-O-Phosphoryl-(Rp)-thioadenylyl-(2'-5')-(Sp)-thioadenylyl-(2'-5')-adenosine [pARp ASp A]
concentration at which RNase L was activated to cleave 28S and 18S rRNA (RNase L [1]): 10^-7 M | Percent Inhibition of HIV reverse transcriptase [2]: 25% | Reverse Transcriptase Activity [2]: 206 10^3 cpm | Percent TMV Inhibition [3]: 15% | effect on RNase L activation (result in words) (RNase L [4]): relatively metabolically stable and highly efficient activator for RNase L

5'-O-Phosphoryl-(Sp)-thioadenylyl-(2'-5')-(Rp)-thioadenylyl-(2'-5')-adenosine [pASp ARp A]
concentration at which RNase L was activated to cleave 28S and 18S rRNA (RNase L [1]): 10^-8 M | Percent Inhibition of HIV reverse transcriptase [2]: 16% | Reverse Transcriptase Activity [2]: 230 10^3 cpm | Percent TMV Inhibition [3]: 23%

5'-O-Phosphoryl-(Sp)-thioadenylyl-(2'-5')-(Sp)-thioadenylyl-(2'-5')-adenosine [pASp ASp A]
metabolic stability (result in words) (phosphodiesterases): metabolically stable to specific and non-specific phosphodiesterases | concentration at which RNase L was activated to cleave 28S and 18S rRNA (RNase L [1]): > 10^-5 M | inhibition of HIV reverse transcriptase (result in words) [2]: inhibit HIV reverse transcriptase activity and tobacco mosaic virus replication | Percent Inhibition of HIV reverse transcriptase [2]: 15% | Reverse Transcriptase Activity [2]: 232 10^3 cpm | Percent TMV Inhibition [3]: 40% | inhibition of TMV replication (result in words) ([3]; in vivo): inhibit HIV reverse transcriptase activity and tobacco mosaic virus replication | effect on RNase L activation (result in words) (RNase L [4]): selectively inhibits activation of RNase L at physiological concentrations; also recorded: metabolically stable inhibitor of RNase L; also recorded: most effective inhibitor of RNase L reported to date

Nc1ncnc2c1ncn2[C@@H]1O[C@H](CO[P@@](O)(=S)O[C@@H]2[C@H](O)[C@@H](CO)O[C@H]2n2cnc3c(N)ncnc32)[C@@H](O)[C@H]1O [Compound 6A, P-Thioadenylyl-(2'-5')-adenosine]
half life, hydrolysis by SVPD (SVPD): 3 h | hydrolysis by L cell extract / 2'-PDE (result in words) [5]: not cleaved | hydrolysis by L cell extract / 2'-PDE (result in words) ([5]; listed as ARp A): not substrates for 2'-PDE | hydrolysis by serum phosphodiesterases (result in words) (serum phosphodiesterases): not cleaved

Nc1ncnc2c1ncn2[C@@H]1O[C@H](CO[P@](O)(=S)O[C@@H]2[C@H](O)[C@@H](CO)O[C@H]2n2cnc3c(N)ncnc32)[C@@H](O)[C@H]1O [Compound 6B, P-Thioadenylyl-(2'-5')-adenosine]
hydrolysis by SVPD (result in words) (SVPD): not cleaved | hydrolysis by SVPD (result in words) (SVPD; listed as ASp A): not a substrate for SVPD | hydrolysis by L cell extract / 2'-PDE (result in words) [5]: not cleaved | hydrolysis by L cell extract / 2'-PDE (result in words) ([5]; listed as ASp A): not substrates for 2'-PDE | hydrolysis by serum phosphodiesterases (result in words) (serum phosphodiesterases): not cleaved

(Rp)-P-Thioadenylyl-(2'-5')-(Rp)-P-thioadenylyl-(2'-5')-adenosine [Compound 9A]
concentration at which RNase L was activated to cleave 28S and 18S rRNA (RNase L [1]): 10^-5 M | Percent Inhibition of HIV reverse transcriptase [2]: 18% | Reverse Transcriptase Activity [2]: 224 10^3 cpm | Percent TMV Inhibition [3]: 57% | half life, hydrolysis by SVPD (SVPD): 1 h | hydrolysis by SVPD (result in words) (SVPD): hydrolysis by SVPD to yield AMPS plus ARp A | half life, hydrolysis by L cell extract [5]: 18 h | half life, hydrolysis by serum phosphodiesterases (serum phosphodiesterases): 8 h

(Rp)-P-thioadenylyl-(2'-5')-(Sp)-P-thioadenylyl-(2'-5')-(Sp)-P-thioadenylyl-(2'-5')-adenosine [ARp ASp ASp A]
Percent Inhibition of HIV reverse transcriptase [2]: 46% | Reverse Transcriptase Activity [2]: 147 10^3 cpm | Percent TMV Inhibition [3]: 80%

(Sp)-P-Thioadenylyl-(2'-5')-(Rp)-P-thioadenylyl-(2'-5')-adenosine [Compound 9B]
concentration at which RNase L was activated to cleave 28S and 18S rRNA (RNase L [1]): 10^-5 M | Percent Inhibition of HIV reverse transcriptase [2]: 6% | Reverse Transcriptase Activity [2]: 258 10^3 cpm | Percent TMV Inhibition [3]: 33% | half life, hydrolysis by SVPD (SVPD): 8 h | hydrolysis by SVPD (result in words) (SVPD): yielded ASp A and AMPS | half life, hydrolysis by L cell extract [5]: 15 h | hydrolysis by serum phosphodiesterases (result in words) (serum phosphodiesterases): not cleaved

(Sp)-P-Thioadenylyl-(2'-5')-(Sp)-P-thioadenylyl-(2'-5')-adenosine [Compound 10B]
inhibition of RNase L activation, rRNA cleavage assay (result in words) (RNase L [1]): inhibit RNase L activation | concentration at which RNase L was activated to cleave 28S and 18S rRNA (RNase L [1]): > 10^-4 M | Percent Inhibition of HIV reverse transcriptase [2]: 20% | Reverse Transcriptase Activity [2]: 219 10^3 cpm | Percent TMV Inhibition [3]: 80% | inhibition of RNase L activation, core-cellulose assay (result in words) (RNase L [6]): inhibit RNase L activation | concentration up to which RNase L was not activated, core-cellulose assay (RNase L [6]; poly(U)-3'-[32P]pCp substrate, not activated at the concentration): > 10^-3 M | hydrolysis by SVPD (result in words) (SVPD): not substrates for SVPD; also recorded: not cleaved | hydrolysis by SVPD (result in words) (SVPD; listed as ASp ASp A): not substrates of SVPD | hydrolysis by L cell extract / 2'-PDE (result in words) [5]: not cleaved | hydrolysis by L cell extract / 2'-PDE (result in words) ([5]; listed as ASp ASp A): not cleaved by L-cell extract | hydrolysis by serum phosphodiesterases (result in words) (serum phosphodiesterases): not cleaved | effect on RNase L activation (result in words) (RNase L [4]): selectively inactivates RNase L

(Sp)-P-thioadenylyl-(2'-5')-(Sp)-P-thioadenylyl-(2'-5')-(Sp)-P-thioadenylyl-(2'-5')-adenosine [ASp ASp ASp A]
Percent Inhibition of HIV reverse transcriptase [2]: 45% | Reverse Transcriptase Activity [2]: 149 10^3 cpm | Percent TMV Inhibition [3]: 70%
